Test results taken from patent US9145415B2, “Nitrogen-containing heterocyclic compound or salt thereof” (FUJIFILM Corporation, priority 2012, dated 2015).

Legend:
[1] = target: T1, human FLT3 protein (FLT3 (WT)) (Homo sapiens, UniProt P36888); experiment: FLT3 inhibition test (FLT3 enzyme inhibition, time-resolved fluorescence of substrate peptide phosphorylation); format: biochemical; details: GST-fused human FLT3 (564 to 993 aa), ATP 50 μM; read-out: FLT3 (WT) enzyme inhibition activity
T1 construct: human FLT3 protein (intracellular region, 564 to 993 aa); GST; purchased Carna Biosciences; host or cells: baculovirus expression system
T1 sequence (P36888 564-993): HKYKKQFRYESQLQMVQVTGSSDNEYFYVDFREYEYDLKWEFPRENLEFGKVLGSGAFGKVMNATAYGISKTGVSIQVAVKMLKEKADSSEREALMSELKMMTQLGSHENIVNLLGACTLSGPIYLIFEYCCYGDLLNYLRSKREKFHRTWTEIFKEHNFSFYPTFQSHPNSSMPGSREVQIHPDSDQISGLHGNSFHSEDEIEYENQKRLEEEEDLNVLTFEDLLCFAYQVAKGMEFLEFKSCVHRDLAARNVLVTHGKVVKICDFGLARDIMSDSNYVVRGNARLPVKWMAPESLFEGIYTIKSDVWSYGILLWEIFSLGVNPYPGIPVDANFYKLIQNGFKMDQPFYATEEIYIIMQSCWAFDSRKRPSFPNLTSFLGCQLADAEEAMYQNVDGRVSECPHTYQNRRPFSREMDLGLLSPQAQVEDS
Summary of the method: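 Substrate peptide phosphorylation detected by time-resolved fluorescence after a 30 min kinase reaction at 25° C with 50 μM ATP (final). Beforehand, compound and FLT3 (WT, 1.2 μg) stood 15 min at 25° C in HEPES buffer pH 7.5 containing MgCl2, NaCl, BSA and DTT.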

Molm-13 cells = experiment: Leukemia cell proliferation inhibition test (ATPlite), Molm-13; format: cell-based; details: Homo sapiens, MOLM-13, 72 h, Molm-13, 72 hours culture, ATPlite; GI50 per method; read-out: MOLM13 cell proliferation inhibition effect
Summary of the method: (§1)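 Molm-13 or MV4-11 cells at 10,000 cells/well in RPMI with 10% FBS and pen/strep were exposed to serially diluted compound for 72 h at 37 °C, 5% CO2. Total cellular ATP was read by luciferase luminescence. GI50 was taken relative to 0.1% DMSO control, from duplicates by sigmoid non-linear regression.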

MV4-11 cells = experiment: Leukemia cell proliferation inhibition test (ATPlite), MV4-11; format: cell-based; details: Homo sapiens, MV4-11, 72 h, MV4-11, 72 hours culture, ATPlite; GI50 per method; read-out: MV4-11 cell proliferation inhibition effect
Summary of the method: as §1

IC50 [1] | IC50 (Molm-13 cells) | IC50 (MV4-11 cells) | Structure (SMILES)
< 10 nM | 10 to 100 nM | < 10 nM | CCCNc1nc(Nc2ccc(C#N)cc2)ncc1C(=O)Nc1cccc(NC(=O)[C@H](C)N(C)C(=O)/C=C/CN(C)C)c1 [Compound 6-1, (S,E)-2-((4-cyanophenyl)amino)-N-(3-(2-(4-(dimethylamino)-N-methyl-2-butenamido)propanamido)phenyl)-4-(propylamino)pyrimidine-5-carboxamide]
10 to 100 nM | 100 to 1000 nM | 10 to 100 nM | C=CC(=O)NCC(=O)Nc1cccc(NC(=O)c2cnc(Nc3ccc(C#N)cc3)nc2NCCC)c1 [Compound 6-2, N-(3-(2-(acrylylamido)acetamido)phenyl)-2-((4-cyanophenyl)amino)-4-(propylamino)pyrimidine-5-carboxamide]
< 10 nM | 10 to 100 nM | 10 to 100 nM | CCCNc1nc(Nc2cccc(C#N)c2)ncc1C(=O)Nc1cccc(NC(=O)[C@H](C)N(C)C(=O)/C=C/CN(C)C)c1 [Compound 6-3, (S,E)-2-((3-cyanophenyl)amino)-N-(3-(2-(4-(dimethylamino)-N-methyl-2-butenamido)propanamido)phenyl)-4-(propylamino)pyrimidine-5-carboxamide]
< 10 nM | < 10 nM | < 10 nM | CCCNc1nc(Nc2cccc(F)c2)ncc1C(=O)Nc1cccc(NC(=O)[C@H](C)N(C)C(=O)/C=C/CN(C)C)c1 [Compound 6-4, (S,E)-N-(3-(2-(4-(dimethylamino)-N-methyl-2-butenamido)propanamido)phenyl)-2-((3-fluorophenyl)amino)-4-(propylamino)pyrimidine-5-carboxamide]
< 10 nM | 10 to 100 nM | 10 to 100 nM | C=CC(=O)NCC(=O)NCCCNC(=O)c1cnc(Nc2ccc3cnccc3c2)nc1NCCC [Compound 6-5]
< 10 nM | < 10 nM | < 10 nM | C=CC(=O)N(C)CC(=O)NCCCNC(=O)c1cnc(Nc2ccc3cnccc3c2)nc1NCCC [Compound 6-6]
< 10 nM | 10 to 100 nM | 10 to 100 nM | C=CC(=O)NC(C)(C)C(=O)NCCCNC(=O)c1cnc(Nc2ccc3cnccc3c2)nc1NCCC [Compound 6-7]
< 10 nM | < 10 nM | < 10 nM | CCCNc1nc(Nc2ccc3cnccc3c2)ncc1C(=O)NCCCNC(=O)[C@H](C)N(C)C(=O)/C=C/CN(C)C [Compound 6-8]
< 10 nM | < 10 nM | < 10 nM | CCCNc1nc(Nc2ccc3cnccc3c2)ncc1C(=O)Nc1cccc(NC(=O)[C@H](C)N(C)C(=O)/C=C/CN(C)C)c1 [Compound 6-9, (S,E)-N-(3-(2-(4-(Dimethylamino)-N-methyl-2-butenamido)propanamido)phenyl)-2-(isoquinolin-6-ylamino)-4-(propylamino)pyrimidine-5-carboxamide]
< 10 nM | 100 to 1000 nM | 10 to 100 nM | C=CC(=O)N(C)CC(=O)NCCCNC(=O)c1cnc(Nc2ccc3cnncc3c2)nc1NCCC [Compound 6-10A, N-(3-(2-(N-methylacrylylamido)actamido)propyl)-2-((phthalazin-6-yl)amino)-4-(propylamino)pyrimidine-5-carboxamide]
< 10 nM | < 10 nM | < 10 nM | CCCNc1nc(Nc2ccc3nnccc3c2)ncc1C(=O)NCCCNC(=O)[C@H](C)N(C)C(=O)/C=C/CN(C)C [Compound 6-10B]
< 10 nM | < 10 nM | < 10 nM | CCCNc1nc(Nc2ccc3nnccc3c2)ncc1C(=O)Nc1cccc(NC(=O)[C@H](C)N(C)C(=O)/C=C/CN(C)C)c1 [Compound 6-11, (S,E)-2-(Cinnolin-6-ylamino)-N-(3-(2-(4-(dimethylamino)-N-methyl-2-butenamido)propanamido)phenyl)-4-(propylamino)pyrimidine-5-carboxamide]
< 10 nM | 100 to 1000 nM | 10 to 100 nM | C=CC(=O)N(C)CC(=O)NCCCNC(=O)c1cnc(NC(=O)Nc2ccncc2)nc1NCCC [Compound 6-12]
< 10 nM | 100 to 1000 nM | 100 to 1000 nM | CCCNc1nc(NC(=O)Nc2ccncc2)ncc1C(=O)NCCCNC(=O)CN(C)C(=O)/C=C/CN(C)C [Compound 6-13]
< 10 nM | 10 to 100 nM | < 10 nM | CCCNc1nc(NC(=O)Nc2ccncc2)ncc1C(=O)Nc1cccc(NC(=O)[C@H](C)N(C)C(=O)/C=C/CN(C)C)c1 [Compound 6-14]
< 10 nM | 100 to 1000 nM | 100 to 1000 nM | CCCNc1nc(NC(=O)Nc2ccncc2)ncc1C(=O)Nc1cccc(NC(=O)[C@H](C)NC(=O)/C=C/CN(C)C)c1 [Compound 6-15]
10 to 100 nM | 10 to 100 nM | 100 to 1000 nM | C=CC(=O)N1CCC(NC(=O)c2cnc(NCCc3ccncc3)nc2NCCC)C1 (stereo not drawn) [Compound 6-16]
10 to 100 nM | 100 to 1000 nM | 100 to 1000 nM | C=CC(=O)NCC(=O)N1CCC(NC(=O)c2cnc(NCCc3ccncc3)nc2NCCC)C1 (stereo not drawn) [Compound 6-17]
< 10 nM | 10 to 100 nM | 10 to 100 nM | C=CC(=O)N1CCC(NC(=O)c2cnc(NCCc3ccncc3)nc2NCCC)CC1 [Compound 6-18]
10 to 100 nM | 10 to 100 nM | 10 to 100 nM | C=CC(=O)NCC(=O)N1CCC(NC(=O)c2cnc(NCCc3ccncc3)nc2NCCC)CC1 [Compound 6-19]
10 to 100 nM | 100 to 1000 nM | 100 to 1000 nM | CCCNc1nc(Nc2cccc(F)c2)ncc1CNc1cccc(NC(=O)[C@H](C)N(C)C(=O)/C=C/CN(C)C)c1 [Compound 6-21]
10 to 100 nM | 100 to 1000 nM | 100 to 1000 nM | CCCNc1nc(Nc2cccc(F)c2)ncc1-c1nc2ccc(NC(=O)[C@H](C)N(C)C(=O)/C=C/CN(C)C)cc2o1 [Compound 6-23, (S,E)-4-(dimethylamino)-N-(1-((2-(2-((3-fluorophenyl)amino)-4-(propylamino)pyrimidin-5-yl)benzo[d]oxazol-6-yl)amino)-1-oxopropan-2-yl)-N-methyl-2-butenamide]
< 10 nM | < 10 nM | < 10 nM | CCCNc1nc(Nc2cccc(F)c2)ncc1C#CCCCNC(=O)[C@H](C)N(C)C(=O)/C=C/CN(C)C [Compound 7-1, (S,E)-4-(dimethylamino)-N-(1-((5-(2-((3-fluorophenyl)amino)-4-(propylamino)pyrimidin-5-yl)-4-pentyn-1-yl)amino)-1-oxopropan-2-yl)-N-methyl-2-butenamide]
< 10 nM | < 10 nM | < 10 nM | CCCNc1nc(Nc2ccc(C(N)=O)cc2)ncc1C#CCCCNC(=O)CNC(=O)/C=C/CN(C)C [Compound 7-2]
< 10 nM | < 10 nM | < 10 nM | CCCNc1nc(Nc2cccc(C#N)c2)ncc1C#CCCCNC(=O)[C@H](C)N(C)C(=O)/C=C/CN(C)C [Compound 7-3, (S,E)-N-(1-((5-(2-((3-Cyanophenyl)amino)-4-(propylamino)pyrimidin-5-yl)-4-pentyn-1-yl)amino)-1-oxopropan-2-yl)-4-(dimethylamino)-N-methyl-2-butenamide]
< 10 nM | < 10 nM | < 10 nM | CCCNc1nc(Nc2ccc(C(N)=O)cc2)ncc1C#CCCCNC(=O)[C@H](C)N(C)C(=O)/C=C/CN(C)C [Compound 7-4, (S,E)-4-((5-(5-(2-(4-(Dimethylamino)-N-methyl-2-butenamido)propaneamido)-1-pentyn-1-yl)-4-(propylamino)pyrimidin-2-yl)amino)benzamide]
< 10 nM | 10 to 100 nM | 10 to 100 nM | C[C@@H](C(=O)NCCCC#Cc1cnc(Nc2cccc(F)c2)nc1OC1CCC1)N(C)C(=O)/C=C/CN(C)C [Compound 7-6]
< 10 nM | < 10 nM | < 10 nM | C[C@@H](C(=O)NCCCC#Cc1cnc(Nc2cccc(F)c2)nc1NC1=CC2C=CC=NC2C=C1)N(C)C(=O)/C=C/CN(C)C (stereo partly drawn) [Compound 7-7]
< 10 nM | < 10 nM | < 10 nM | CCCNc1nc(Nc2ccc(F)cc2)ncc1C#CCCCNC(=O)CN(C)C(=O)/C=C/CN(C)C [Compound 7-8, (E)-4-(Dimethylamino)-N-(2-((5-(2-((4-fluorophenyl)amino)-4-(propylamino)pyrimidin-5-yl)-4-pentyn-1-yl)amino)-2-oxoethyl)-N-methyl-2-butenamide]
< 10 nM | < 10 nM | < 10 nM | CCCNc1nc(Nc2ccc(C#N)cc2)ncc1C#CCCCNC(=O)CN(C)C(=O)/C=C/CN(C)C [Compound 7-9, (E)-N-(2-((5-(2-((4-Cyanophenyl)amino)-4-(propylamino)pyrimidin-5-yl)-4-pentyn-1-yl)amino)-2-oxoethyl)-4-(dimethylamino)-N-methyl-2-butenamide]
